Measured values from patent publication US10065962B2, “Amino pryan ring derivative and composition and use thereof” (Sichuan Haisco Pharmaceutical Co., Ltd., priority 2014, dated 2018).
Like-named read-outs stand apart in the source and are kept apart here.

Columns and labels:
plasma DPP-IV [1] = molecular target: plasma DPP-IV (Canis lupus familiaris, UniProt A0A8I3Q2I8); details: beagle dogs, oral 10.0 mg/kg, plasma DPP-IV activity
Description: The laboratory animals were male beagle dogs provided by Chengdu Dashuo Biological Sciences and Technology Co., Ltd. Fasted beagle dogs were grouped based on the body weight. The test group was orally administrated with the test compounds at a dose of 10.0 mg/kg. Blood samples were taken at various time points after the administration and subjected to anticoagulation with EDTA-2Na. […] Plasma was taken and preserved at −20° C. For the enzymatic activity assay, 40 μl plasma was taken from each test sample, and 10 μl H-Ala-Pro-AFC substrate (0.2 mM) was added thereto, followed by reaction for 15 nm.

C57 mice = assay: Oral glucose tolerance test (OGTT) in mice; type: in vivo; details: 10 mg/kg intragastric, glucose 5 g/kg 60 min after administration
Description: The oral glucose tolerance test (OGTT) was performed to evaluate the hypoglycemic effect of the compounds of the present invention in mice. 8-week old male C57 mice were purchased from Beijing Vital River Laboratory Animal Technology Co., Ltd. (Laboratory Animal Certificate No. SCXK (Beijing) 2012-0001) and used in the test The mice were grouped based on the base level of blood sugar after fasted, with 10 animals per group. The test compounds were formulated into a 1 mg/ml suspension and administered intragastrically at a dose of 10 mg/kg, while a blank agent was administered to the blank control group. 60 min after the administration, a 50% aqueous solution of glucose was dosed (5 g/kg), and the blood sugar level of each mouse was measured with a OneTouch blood glucose meter manufactured by Johnson & Johnson at 0 min, 15 min, 30 min, 45 min, 60 min, and 120 min.

plasma DPP-IV [2] = molecular target: T1, plasma DPP-IV (Rattus norvegicus, UniProt P14740); assay: Enzymatic screening experiment on plasma DPP-IV in rats; type: in vivo; details: SD rats, oral 3.0 mg/kg, plasma DPP-IV activity
T1 construct: from tissue; host or cells: plasma of SD rats
T1 sequence (P14740 37-767 limits assumed): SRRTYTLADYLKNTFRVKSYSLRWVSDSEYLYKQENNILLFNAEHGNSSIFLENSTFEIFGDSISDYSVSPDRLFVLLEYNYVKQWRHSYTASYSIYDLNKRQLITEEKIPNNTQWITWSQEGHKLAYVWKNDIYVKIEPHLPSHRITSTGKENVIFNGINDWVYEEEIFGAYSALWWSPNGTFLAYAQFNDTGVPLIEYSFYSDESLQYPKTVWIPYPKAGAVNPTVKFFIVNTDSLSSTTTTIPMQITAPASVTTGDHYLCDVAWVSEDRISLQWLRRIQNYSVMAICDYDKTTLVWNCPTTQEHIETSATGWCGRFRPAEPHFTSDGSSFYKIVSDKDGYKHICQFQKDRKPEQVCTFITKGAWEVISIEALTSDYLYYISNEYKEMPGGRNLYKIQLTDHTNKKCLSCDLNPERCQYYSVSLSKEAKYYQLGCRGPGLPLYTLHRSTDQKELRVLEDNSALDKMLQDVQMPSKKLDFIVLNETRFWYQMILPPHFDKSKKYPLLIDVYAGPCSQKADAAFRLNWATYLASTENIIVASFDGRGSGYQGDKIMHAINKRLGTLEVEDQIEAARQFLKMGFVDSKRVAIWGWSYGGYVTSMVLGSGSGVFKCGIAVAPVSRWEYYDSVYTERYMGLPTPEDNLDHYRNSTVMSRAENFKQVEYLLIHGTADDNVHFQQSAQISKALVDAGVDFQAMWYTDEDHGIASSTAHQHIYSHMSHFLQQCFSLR
From the text: Fasted rats were grouped based on the body weight.

DPP-IV = DPP-IV (Mus musculus, UniProt P28843); assay: Effect of single oral administration on the enzymatic activity of DPP-IV in ob/ob mice; details: read-out: DPP-IV enzymatic activity
Sequence of DPP-IV (P28843 37-760 limits assumed): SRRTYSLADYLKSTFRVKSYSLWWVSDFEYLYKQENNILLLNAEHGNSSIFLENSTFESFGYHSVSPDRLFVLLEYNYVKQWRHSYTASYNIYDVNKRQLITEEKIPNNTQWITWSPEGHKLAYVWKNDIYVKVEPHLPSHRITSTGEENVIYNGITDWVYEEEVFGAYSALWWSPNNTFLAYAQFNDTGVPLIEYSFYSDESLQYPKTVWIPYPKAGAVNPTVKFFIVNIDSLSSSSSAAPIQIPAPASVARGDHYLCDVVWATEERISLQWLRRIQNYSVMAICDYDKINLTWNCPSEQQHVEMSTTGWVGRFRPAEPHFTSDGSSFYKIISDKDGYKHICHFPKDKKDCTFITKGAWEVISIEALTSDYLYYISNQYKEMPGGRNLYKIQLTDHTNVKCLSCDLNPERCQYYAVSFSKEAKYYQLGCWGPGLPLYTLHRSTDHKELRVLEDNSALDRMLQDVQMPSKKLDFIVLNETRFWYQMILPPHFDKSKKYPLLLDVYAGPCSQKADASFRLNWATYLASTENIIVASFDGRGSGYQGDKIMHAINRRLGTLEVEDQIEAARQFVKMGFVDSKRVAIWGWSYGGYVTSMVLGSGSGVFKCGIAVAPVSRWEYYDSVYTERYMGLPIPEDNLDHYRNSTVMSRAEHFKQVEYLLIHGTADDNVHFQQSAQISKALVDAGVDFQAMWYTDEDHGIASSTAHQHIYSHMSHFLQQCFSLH

[3] = Evaluation of pharmacokinetics in rats; type: in vivo; details: rat, whole blood, po, male SD rats, 5 mg/kg intragastric; for Cmax: read-out: Blood drug level Cmax; for half-life: read-out: Half-life T1/2 (converted)
Description: Male SD rats (purchased from Vital River Laboratory Animal Technology Co. LTD. License No. 11400700005540) each weighing 200 to 240 g were fasted overnight. On the day of experiments, 3 SD rats were each intragastrically administered with 5 mg/kg compound, and a 0.20 ml blood sample was taken from their jugular veins before the administration and 15 min, 30 min, 45 min, 1 h, 2 h, 4 h, 8 h, 12 h, and 24 h after the administration, to an EDTA tube. Acetonitrile containing an internal reference (verapamil 5.00 ng/ml, and glibenclamide 50.0 ng/ml) was added to the blood sample, followed by vigorous vortexing and centrifuging at 13,000 rpm for 10 min. The supernatant was taken for the LC-MS/MS assay. Pharmacokinetics parameters were calculated by using the non-compartment mode in Pharsight Phoenix 6.3.

[4] = Concentration of the compound in monkey plasma by LC-MS/MS; type: in vivo; details: male, rhesus monkey, Rhesus monkeys, oral 10.0 mg/kg
Description: The laboratory animals were healthy male Rhesus monkeys each weighing about 5 kg, provided by Sichuan Primed Bio-tech Group Co. Ltd. Fasted Rhesus monkeys were grouped based on the body weight. […] For the enzymatic activity assay, 40 μl plasma was taken from each test sample, and 10 μl H-Ala-Pro-AFC substrate (0.2 mM) was added thereto, followed by reaction for 15 min. […] The period during which the inhibition of plasma. DPP-IV enzymatic activity was ≥80% was calculated for the test compounds, and the concentration of the compounds in plasma was measured by LC-MS/MS.

Sequence of plasma DPP-IV (Canis lupus familiaris, UniProt A0A8I3Q2I8) (A0A8I3Q2I8 1-765): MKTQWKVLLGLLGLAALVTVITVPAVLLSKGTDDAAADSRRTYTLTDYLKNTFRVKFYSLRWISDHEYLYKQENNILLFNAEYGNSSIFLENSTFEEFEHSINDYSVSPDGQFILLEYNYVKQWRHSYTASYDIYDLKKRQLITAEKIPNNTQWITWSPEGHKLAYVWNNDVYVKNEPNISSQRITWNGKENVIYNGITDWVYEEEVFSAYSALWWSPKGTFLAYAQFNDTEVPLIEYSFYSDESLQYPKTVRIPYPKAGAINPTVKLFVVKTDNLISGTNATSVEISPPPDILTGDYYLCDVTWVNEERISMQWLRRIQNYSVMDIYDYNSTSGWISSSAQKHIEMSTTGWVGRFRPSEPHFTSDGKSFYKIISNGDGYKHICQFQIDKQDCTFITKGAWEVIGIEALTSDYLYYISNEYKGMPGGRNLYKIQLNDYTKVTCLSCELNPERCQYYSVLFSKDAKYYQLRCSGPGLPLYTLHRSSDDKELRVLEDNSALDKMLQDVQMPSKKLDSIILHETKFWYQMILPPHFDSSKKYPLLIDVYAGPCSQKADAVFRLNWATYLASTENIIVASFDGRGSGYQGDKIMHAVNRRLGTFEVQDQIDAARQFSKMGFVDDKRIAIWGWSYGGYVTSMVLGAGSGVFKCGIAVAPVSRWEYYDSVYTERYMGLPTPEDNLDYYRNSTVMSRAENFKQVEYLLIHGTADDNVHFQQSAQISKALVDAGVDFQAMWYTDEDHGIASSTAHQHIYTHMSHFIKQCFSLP

With `CS(=O)(=O)n1cc2c(n1)CN([C@H]1CO[C@H](c3cc(F)ccc3F)[C@@H](N)C1)C2` [Omarigliptin] the “Duration of Inhibition ≥80%” value (plasma DPP-IV [1]) was 162 h, the “Decrease in AUC (blood sugar, OGTT)” value (C57 mice) was 22.27% and the “Duration of Inhibition ≥70%” value (plasma DPP-IV [2]) was 55 h. It also gave a response vs control in vivo at 30 mg/kg (DPP-IV; 2 h) of 5.8%, a response vs control in vivo at 30 mg/kg (DPP-IV; 4 h) of 5.4% and a response vs control in vivo at 30 mg/kg (DPP-IV; 10 h) of 5.5%. For the same compound, the response vs control in vivo at 30 mg/kg (DPP-IV; 24 h) was 30%, the response vs control in vivo at 30 mg/kg (DPP-IV; 34 h) was 34.5% and the response vs control in vivo at 30 mg/kg (DPP-IV; 48 h) was 58.1%. For the same compound, the response vs control in vivo at 30 mg/kg (DPP-IV; 58 h) was 49.9%, the response vs control in vivo at 30 mg/kg (DPP-IV; 72 h) was 66.7% and the AUC(0-t) [3] was 66800 ng·h/mL. For the same compound, the Cmax [3] was 9290 ng/mL and the half-life [3] was 6.1 h.
In the case of `N[C@H]1C[C@@H](N2Cc3cn(S(=O)(=O)C4CC4)nc3C2)[C@@H](C(F)(F)F)O[C@@H]1c1cc(F)ccc1F` [Compound 1], the “Decrease in AUC (blood sugar, OGTT)” value (C57 mice) is reported as 27.20%.
Compound `CS(=O)(=O)n1cc2c(n1)CN([C@@H]1C[C@H](N)[C@@H](c3cc(F)ccc3F)O[C@@H]1C(F)(F)F)C2` [Compound 3, (2R,3S,5R,6S)-2-(2,5-difluorophenyl)-5-(2-(methylsulfonyl)pyrrolo[3,4-c]pyrazol-5(2H,4H,6H)-yl)-6-(trifluoromethyl)tetrahydro-2H-pyran-3-amine] has a concentration at 0 h ([4]; 0 h) of 0 nM, a concentration at 0.5 h ([4]; 0.5 h) of 270 nM and a concentration at 1 h ([4]; 1 h) of 1060 nM. For the same compound, the concentration at 2 h ([4]; 2 h) was 5640 nM, the concentration at 4 h ([4]; 4 h) was 2560 nM and the concentration at 8 h ([4]; 8 h) was 4220 nM. The concentration at 12 h ([4]; 12 h) was 4010 nM, the concentration at 24 h ([4]; 24 h) was 2930 nM and the concentration at 32 h ([4]; 32 h) was 2560 nM. For the same compound, the concentration at 48 h ([4]; 48 h) was 1940 nM, the concentration at 56 h ([4]; 56 h) was 1280 nM and the concentration at 72 h ([4]; 72 h) was 1120 nM. The concentration at 80 h ([4]; 80 h) was 680 nM, the concentration at 96 h ([4]; 96 h) was 710 nM and the concentration at 104 h ([4]; 104 h) was 440 nM. For the same compound, the concentration at 120 h ([4]; 120 h) was 340 nM, the concentration at 128 h ([4]; 128 h) was 270 nM and the concentration at 144 h ([4]; 144 h) was 210 nM. The concentration at 152 h ([4]; 152 h) was 160 nM, the concentration at 168 h ([4]; 168 h) was 140 nM and the concentration at 216 h ([4]; 216 h) was 71 nM. For the same compound, the concentration at 240 h ([4]; 240 h) was 41 nM, the concentration at 264 h ([4]; 264 h) was 32 nM and the “Decrease in AUC (blood sugar, OGTT)” value (C57 mice) was 27.99%. It also gave an AUC(0-t) [3] of 106000 ng·h/mL, a Cmax [3] of 11600 ng/mL and a half-life [3] of 7.1 h.
